Consider 25 compounds from US20200069691A1, “HETEROCYCLIC COMPOUNDS AS HIV PROTEASE INHIBITORS” (Merck Sharp & Dohme Corp., priority 2016, published 2020).

Usually pIC50 stands for −log10 of the IC50, conventionally taken in molar units.

This assay addresses T1, wild-type HIV-1 protease (Human immunodeficiency virus type 1 group M subtype B, UniProt P04585).
T1 construct: Escherichia coli expressed wild-type HIV-1 protease protein
Briefly: Assay for Inhibition of Microbial Expressed HIV Protease (peptide substrate cleavage, LC-MS/MS readout). Format: biochemical. The following applies: E. coli expressed wild-type HIV-1 protease, mean of at least two independent experiments, read-out: HIV Pr Enzyme HIV1 PR IC50. As for the experimental part: Assay for Inhibition of Microbial Expressed HIV Protease
Inhibition of Escherichia coli expressed wild-type HIV-1 protease protein was carried out with a peptide substrate [Val-Ser-Gln-Asn-(βnaphtyl)Ala-Pro-Ile-Val]. The inhibitor compound was preincubated with HIV-1 protease enzyme in assay buffer (50 mM sodium acetate, pH 5.5, 100 mM NaCl, and 0.1% BSA) for 30 minutes at room temperature. Peptide substrate was added to 400 μM in a total volume of 20 μL containing […] HIV-1 protease (final) after which the reaction was incubated for 1 hour at 30° C. […] The extent of inhibition of the reaction was determined from the peak area of the products.
Data shown in the table reflects the mean of at least two independent experiments.

The structures appear in SMILES notation. pIC50: −log10 of the molar value.

As to `CS(=O)(=O)N1CCN(C(=O)c2cc(CN3C(=N)N[C@](CCCC(F)(F)F)(c4ccc(F)cc4)C3=O)ccc2C(F)(F)F)CC1` [Compound 92, (5R)-5-(4-fluorophenyl)-2-imino-3-[3-{[4-(methylsulfonyl)piperazin-1-yl]carbonyl}-4-(trifluoromethyl)-benzyl]-5-(4,4,4-trifluorobutyl)-imidazolidin-4-one], the pIC50 was 7.76. With `CC(C)CC[C@]1(c2ccccc2)NC(=N)N(C(CC(C)C)c2ccc(C(F)(F)F)c(C(=O)N3Cc4nccnc4C3)c2)C1=O` (stereo partly drawn) [Compound 5, (5R)-3-{1-[3-(5,7-dihydro-6H-pyrrolo[3,4-b]pyrazin-6-ylcarbonyl)-4-(trifluoromethyl)-phenyl]-3-methylbutyl}-2-imino-5-(3-methylbutyl)-5-phenylimidazo-lidin-4-one], the negative logarithm of the IC50 (pIC50) is 9.59. On to `N=C1N[C@](CCCC(F)(F)F)(c2ccc(F)cc2)C(=O)N1Cc1ccc(C(F)(F)F)c(C(=O)N2Cc3cnc(-c4cnc(-n5cccn5)nc4)nc3C2)c1` [Compound 69, (5R)-5-(4-fluorophenyl)-2-imino-3-[3-({2-[2-(1H-pyrazol-1-yl)pyrimidin-5-yl]-5,7-dihydro-6H-pyrrolo[3,4-d]pyrimidin-6-yl}carbonyl)-4-(trifluoromethyl)benzyl]-5-(4,4,4-trifluorobutyl)imidazolidin-4-one], for which the pIC50 was 8.06. As for `COC(=O)N1CCN(C(=O)c2cccc(CN3C(=N)NC(c4ccccc4)(c4ccccc4)C3=O)c2)CC1` [Compound 330, methyl 4-({3-[(2-imino-5-oxo-4.4-diphenylimidazolidin-1-yl)methyl]phenyl}carbonyl) piperazine-1-carboxylate], the pIC50 was 7.17. Regarding `N=C1NC(c2ccc(F)cc2)(c2ccc(F)cc2)C(=O)N1Cc1cccc(C(=O)N2CCN(C(=O)c3ccco3)CC2)c1` [Compound 267, 5,5-bis(4-fluorophenyl)-3-(3-{[4-(furan-2-ylcarbonyl)piperazin-1-yl]carbonyl}benzyl)-2-iminoimidazolidin-4-one], the pIC50 was 7.58. Turning to `N=C1NC(c2ccccc2)(c2ccccc2)C(=O)N1Cc1cccc(C(=O)N2CCn3c(Cc4ccccc4)cnc3C2)c1` [Compound 337, 3-{3-[(3-benzyl-5,6-dihydroimidazo [1,2-a]pyrazin-7(8H)-yl)carbonyl]benzyl}-2-imino-5,5-diphenylimidazolidin-4-one], the pIC50 is 7.14. The same measure for `CC(C)CC1(c2ccccc2)NC(=N)N(Cc2cccc(C(=O)N3Cc4cccnc4C3)c2)C1=O` (stereo not shown) [Compound 259, 3-[3-(5,7-dihydro-6H-pyrrolo[3,4-b]pyridin-6-ylcarbonyl)benzyl]-2-imino-5-(2-methylpropyl)-5-phenylimidazolidin-4-one]: 7.65; for `COC(=O)N1CCN(C(=O)c2cc(CN3C(=N)NC(c4ccccc4)(c4ccccc4)C3=O)ccc2C(F)(F)F)CC1` [Compound 161, methyl 4-({5-[(2-imino-5-oxo-4,4-diphenylimidazolidin-1-yl)methyl]-2-(trifluoromethyl)phenyl}-carbonyl)piperazine-1-carboxylate]: 7.60; for `N=C1N[C@](CCCC(F)(F)F)(c2ccc(F)cc2)C(=O)N1Cc1ccc(C(F)(F)F)c(C(=O)N2Cc3cnc(-c4cccc(N5CCCC5)c4)nc3C2)c1` [Compound 62, (5R)-5-(4-fluorophenyl)-2-imino-3-[3-{[2-(3-pyrrolidin-1-ylphenyl)-5,7-dihydro-6H-pyrrolo[3,4-d]pyrimidin-6-yl]carbonyl}-4-(trifluoromethyl)benzyl]-5-(4,4,4-trifluorobutyl)imidazolidin-4-one]: 8.16. Take `CC(C)CC1(c2ccccc2)NC(=N)N(Cc2ccc(C(F)(F)F)c(C(=O)N3CCC3)c2)C1=O` (stereo not shown) [Compound 179, 3-[3-(azetidin-1-ylcarbonyl)-4-(trifluoromethyl)benzyl]-2-imino-5-(2-methylpropyl)-5-phenylimidazolidin-4-one]: the pIC50 was 7.10. With `N=C1NC(c2ccc(F)cc2)(c2ccc(F)cc2)C(=O)N1Cc1cccc(C(=O)N2Cc3cc(Cl)c(Cl)cc3C2)c1` [Compound 286, 3-{3-[(5,6-dichloro-1,3-dihydro-2H-isoindol-2-yl)carbonyl]benzyl}-5,5-bis(4-fluorophenyl)-2-iminoimidazolidin-4-one], the pIC50 is 7.47. The same measure for `CC(C)CC[C@]1(c2ccc(F)cc2)NC(=N)N(C(Cc2ccccc2)c2ccc(C(F)(F)F)c(C(=O)N3Cc4nccnc4C3)c2)C1=O` (stereo partly drawn) [Compound 6, (5R)-3-{1-[3-(5,7-dihydro-6H-pyrrolo[3,4-b]pyrazin-6-ylcarbonyl)-4-(trifluoromethyl)-phenyl]-2-phenylethyl}-5-(4-fluorophenyl)-2-imino-5-(3-methylbutyl)imidazolidin-4-one]: 9.59; for `Cc1cccc(-c2ncc3c(n2)CN(C(=O)c2cc(CN4C(=N)N[C@](CCCC(F)(F)F)(c5ccc(F)cc5)C4=O)ccc2C(F)(F)F)C3)c1` [Compound 104, (5R)-5-(4-fluorophenyl)-2-imino-3-[3-{[2-(3-methylphenyl)-5,7-dihydro-6H-pyrrolo[3,4-d]pyrimidin-6-yl]carbonyl}-4-(trifluoromethyl)benzyl]-5-(4,4,4-trifluorobutyl)imidazolidin-4-one]: 7.62. The same measure for `N#Cc1ncc2c(n1)CN(C(=O)c1cc(CN3C(=N)NC(c4ccc(F)cc4)(c4ccc(F)cc4)C3=O)ccc1Cl)C2` [Compound 363, 6-[(5-{[4,4-bis(4-fluorophenyl)-2-imino-5-oxoimidazolidin-1-yl]methyl}-2-chlorophenyl)carbonyl]-6,7-dihydro-5H-pyrrolo[3,4-d]pyrimidine-2-carbonitrile]: 8.78; for `Cc1ncc2c(n1)CN(C(=O)c1cccc(CN3C(=N)NC(c4ccc(F)cc4)(c4ccc(F)cc4)C3=O)c1)C2` [Compound 254, 5,5-bis(4-fluorophenyl)-2-imino-3-{3-[(2-methyl-5,7-dihydro-6H-pyrrolo[3,4-d]pyrimidin-6-yl)carbonyl]benzyl} imidazolidin-4-one]: 7.69; for `N=C1N[C@](CCCC(F)(F)F)(c2ccc(F)cc2)C(=O)N1Cc1ccc(C(F)(F)F)c(C(=O)N2Cc3cnc(-c4cnn(CCO)c4)nc3C2)c1` [Compound 12, (5R)-5-(4-fluorophenyl)-3-[3-({2-[1-(2-hydroxyethyl)-1H-pyrazol-4-yl]-5,7-dihydro-6H-pyrrolo[3,4-d]pyrimidin-6-yl}carbonyl)-4-(trifluoromethyl)benzyl]-2-imino-5-(4,4,4-trifluorobutyl)imidazolidin-4-one]: 8.88. Take `CC(C)CCC1(c2ccc(F)cc2)NC(=N)N(Cc2ccc(C(F)(F)F)c(C(=O)N3C[C@@H]4ON=C(Nc5ccccc5)[C@@H]4C3)c2)C1=O` (stereo partly shown) [Compound 175]: the negative logarithm of the IC50 (pIC50) is 7.22. For the compound `N=C1NC(c2ccc(F)cc2)(c2ccc(F)cc2)C(=O)N1Cc1cccc(C(=O)N2Cc3cnc(C(F)(F)F)nc3C2)c1` [Compound 211, 5,5-bis(4-fluorophenyl)-2-imino-3-(3-{[2-(trifluoromethyl)-5,7-dihydro-6H-pyrrolo[3,4-d]pyrimidin-6-yl]carbonyl}benzyl) imidazolidin-4-one], the negative-log IC50 (pIC50) is 7.54.

As to `N#Cc1ncc2c(n1)CN(C(=O)c1cncc(CN3C(=N)NC(c4ccc(F)cc4)(c4ccc(F)cc4)C3=O)c1)C2` [Compound 393, 6-[(5-{[4,4-bis(4-fluorophenyl)-2-imino-5-oxoimidazolidin-1-yl]methyl}pyridin-3-yl)carbonyl]-6,7-dihydro-5H-pyrrolo[3,4-d]pyrimidine-2-carbonitrile], the pIC50 is 7.17. In the case of `COC(=O)N1CCN(C(=O)c2cccc(CN3C(=N)NC(CCC(C)C)(c4cccc(-c5cccnc5)c4)C3=O)c2)CC1` (stereo not shown) [Compound 354, methyl 4-[(3-{[2-imino-4-(3-methylbutyl)-5-oxo-4-(3-pyridin-3-ylphenyl)imidazolidin-1-yl]methyl}phenyl)carbonyl] piperazine-1-carboxylate], the pIC50 was 7.05.

Turning to `CCOC(=O)c1cn2c(n1)CN(C(=O)c1cccc(CN3C(=N)NC(c4ccccc4)(c4ccccc4)C3=O)c1)CC2` [Compound 245, ethyl 7-({3-[(2-imino-5-oxo-4,4-diphenylimidazolidin-1-yl)methyl]phenyl}carbonyl)-5,6,7,8-tetrahydroimidazo[1,2-a]pyrazine-2-carboxylate], the pIC50 was 7.77.

For the compound `N=C1NC(c2ccc(F)cc2)(c2ccc(F)cc2)C(=O)N1Cc1cncc(C(=O)N2Cc3ccccc3C2)c1` [Compound 394, 3-{[5-(1,3-dihydro-2H-isoindol-2-ylcarbonyl)pyridin-3-yl]methyl}-5,5-bis(4-fluorophenyl)-2-iminoimidazolidin-4-one], the pIC50 is 7.03. The same measure for `COc1ccc(CN2C(=N)NC(c3ccc(Cl)cc3)(c3ccc(Cl)cc3)C2=O)cc1C(=O)N1Cc2ccccc2C1` [Compound 388, 5,5-bis(4-chlorophenyl)-3-[3-(1,3-dihydro-2H-isoindol-2-ylcarbonyl)-4-methoxybenzyl]-2-iminoimidazolidin-4-one]: 7.27; for `CNC(=O)N1CCN(C(=O)c2cc(CN3C(=N)N[C@](CCCC(F)(F)F)(c4ccc(F)cc4)C3=O)ccc2C(F)(F)F)CC1` [Compound 115, 4-{[5-{[(4R)-4-(4-fluorophenyl)-2-imino-5-oxo-4-(4,4,4-trifluoro-butyl)imidazolidin-1-yl]methyl}-2-(trifluoromethyl)phenyl]carbonyl}-N-methylpiperazine-1-carboxamide]: 7.44. As to `N=C1NC(c2ccc(F)cc2)(c2ccc(F)cc2)C(=O)N1Cc1ccc(Cl)c(C(=O)N2Cc3ccccc3C2)c1` [Compound 375, 3-[4-chloro-3-(1,3-dihydro-2H-isoindol-2-ylcarbonyl)benzyl]-5,5-bis(4-fluorophenyl)-2-iminoimidazolidin-4-one], the negative-log IC50 (pIC50) is 8.12.
